Among the data in EP0507854B1 (priority 1989, dated 1991) are Ki, substrate quality and substrate cleaved values, retold here.

pKi: −log10 of the molar value.

Data set [1] has as its target Influenza A (H3N2) neuraminidase (Influenza A virus, UniProt P03482). Description: biochemical.
Data set [2] concerns the target Influenza B neuraminidase (Influenza B virus, UniProt P03474). Nature of the data set: biochemical.
Data set [3] deals with Influenza A (H1N1) neuraminidase (Influenza A virus, UniProt P03468). Nature of the data set: biochemical.
Sequence of Influenza A (H1N1) neuraminidase (P03468 whole entry, looked up): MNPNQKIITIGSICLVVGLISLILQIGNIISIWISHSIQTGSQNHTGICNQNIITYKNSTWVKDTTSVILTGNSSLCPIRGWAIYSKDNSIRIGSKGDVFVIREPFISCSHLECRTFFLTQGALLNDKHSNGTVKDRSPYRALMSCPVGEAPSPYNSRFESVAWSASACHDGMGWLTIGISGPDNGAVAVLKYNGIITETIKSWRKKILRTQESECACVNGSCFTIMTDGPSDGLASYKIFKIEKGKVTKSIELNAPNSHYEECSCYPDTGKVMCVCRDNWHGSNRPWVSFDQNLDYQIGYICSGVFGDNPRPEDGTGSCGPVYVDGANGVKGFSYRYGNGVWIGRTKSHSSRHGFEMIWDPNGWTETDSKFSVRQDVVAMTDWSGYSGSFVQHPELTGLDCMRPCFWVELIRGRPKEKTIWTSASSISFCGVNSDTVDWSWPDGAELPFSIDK
A further data set relates to fowl plague viral NA. The settings on record: result in words; cited from earlier work.
For another data set, the system named is A. ureafaciens NA. As to conditions: after 22 hrs; cited from earlier work.
A further data set concerns the target V cholera NA (Vibrio cholerae serotype O1, UniProt P0C6E9). The settings on record: after 22 hrs; cited from earlier work.
For the next data set, the system named is C. perfrinqens NA. The settings on record: after 22 hrs; cited from earlier work.

Sequence of Influenza B neuraminidase (P03474 whole entry, looked up): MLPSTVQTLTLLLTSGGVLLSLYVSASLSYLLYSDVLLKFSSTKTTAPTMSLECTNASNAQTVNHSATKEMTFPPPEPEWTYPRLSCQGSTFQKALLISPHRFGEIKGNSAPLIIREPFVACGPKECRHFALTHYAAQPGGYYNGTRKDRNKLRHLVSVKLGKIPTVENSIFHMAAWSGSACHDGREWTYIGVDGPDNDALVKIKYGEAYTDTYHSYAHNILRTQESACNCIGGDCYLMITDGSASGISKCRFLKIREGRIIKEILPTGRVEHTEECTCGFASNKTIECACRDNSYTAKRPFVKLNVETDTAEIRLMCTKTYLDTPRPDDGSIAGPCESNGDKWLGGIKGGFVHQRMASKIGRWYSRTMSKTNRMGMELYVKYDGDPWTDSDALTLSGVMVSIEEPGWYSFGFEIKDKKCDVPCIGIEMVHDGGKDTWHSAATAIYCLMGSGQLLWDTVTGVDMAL
Sequence of Influenza A (H3N2) neuraminidase (P03482 whole entry, looked up): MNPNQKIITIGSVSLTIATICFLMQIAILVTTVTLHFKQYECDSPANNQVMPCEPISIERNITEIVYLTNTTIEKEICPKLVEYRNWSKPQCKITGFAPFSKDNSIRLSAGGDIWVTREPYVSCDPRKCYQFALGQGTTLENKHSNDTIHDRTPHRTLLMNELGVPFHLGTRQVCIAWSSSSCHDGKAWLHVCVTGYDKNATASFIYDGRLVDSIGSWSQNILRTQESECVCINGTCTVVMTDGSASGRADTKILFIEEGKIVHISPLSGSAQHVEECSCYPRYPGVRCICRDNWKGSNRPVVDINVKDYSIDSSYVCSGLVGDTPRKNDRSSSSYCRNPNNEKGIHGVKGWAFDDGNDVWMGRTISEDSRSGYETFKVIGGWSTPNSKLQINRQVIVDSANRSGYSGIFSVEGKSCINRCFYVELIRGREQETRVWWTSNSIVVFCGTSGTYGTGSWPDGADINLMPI
Sequence of V cholera NA (P0C6E9 25-781 limits assumed): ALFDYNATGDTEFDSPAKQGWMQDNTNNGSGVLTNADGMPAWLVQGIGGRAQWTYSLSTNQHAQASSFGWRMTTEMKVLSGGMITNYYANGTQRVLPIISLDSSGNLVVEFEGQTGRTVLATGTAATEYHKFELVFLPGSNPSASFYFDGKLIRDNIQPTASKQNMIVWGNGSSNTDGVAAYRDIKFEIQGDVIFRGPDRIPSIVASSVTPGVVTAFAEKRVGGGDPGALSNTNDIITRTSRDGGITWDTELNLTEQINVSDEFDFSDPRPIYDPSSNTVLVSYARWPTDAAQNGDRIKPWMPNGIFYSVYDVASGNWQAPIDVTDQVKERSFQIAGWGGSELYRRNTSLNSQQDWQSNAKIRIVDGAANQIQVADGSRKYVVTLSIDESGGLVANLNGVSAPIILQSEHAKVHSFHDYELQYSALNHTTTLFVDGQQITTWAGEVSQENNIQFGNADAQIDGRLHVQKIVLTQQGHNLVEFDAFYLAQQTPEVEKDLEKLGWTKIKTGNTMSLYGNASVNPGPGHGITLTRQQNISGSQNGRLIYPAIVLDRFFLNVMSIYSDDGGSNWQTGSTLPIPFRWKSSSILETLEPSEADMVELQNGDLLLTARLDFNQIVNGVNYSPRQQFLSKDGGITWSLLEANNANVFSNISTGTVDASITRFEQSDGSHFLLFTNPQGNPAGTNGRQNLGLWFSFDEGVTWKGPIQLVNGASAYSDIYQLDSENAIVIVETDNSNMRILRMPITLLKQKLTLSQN

As for `CC(=O)N[C@@H]1CCC(O)(C(=O)O)O[C@H]1[C@H](O)[C@H](O)CO` (stereo partly drawn) [4-deoxy Neu5Ac, 4-deoxy-N-acetylneuraminic acid], the pKi (as a rule, −log10 of the Ki, conventionally taken in molar units) in data set [1] was 2.66; in data set [2] it was 2.98; in data set [3], 3.00.
For `COC1(C(=O)O)CCC(NC(C)=O)C(C(O)C(O)CO)O1` (stereo not drawn) [methyl-alpha-glycoside of 4-deoxy Neu5Ac], the substrate quality result with fowl plague viral NA is reported as “good substrate”.
Turning to `CO[C@H]1CC(O)(C(=O)O)O[C@@H]([C@H](O)[C@H](O)CO)[C@@H]1NC(C)=O` (stereo partly drawn) [4-methoxy Neu5Ac, 4-methoxy-N-acetylneuraminic acid], the substrate quality result with fowl plague viral NA is “excellent substrate”.
Consider `CC(=O)NC1C(O)CC(OCc2ccccc2)(C(=O)O)OC1C(O)C(O)CO` [benzyl-alpha-glycosides of N-acetyl-4-epi-D-neuraminic acid], for which the results for the substrate cleaved with A. ureafaciens NA, on V cholera NA and in the data set with C. perfrinqens NA were 50%, 11% and 100%, respectively.
With `CC(=O)N[C@H]1[C@H]([C@H](O)[C@H](O)CO)OC(O)(C(=O)O)C[C@@H]1O` (stereo partly drawn) [Neu5Ac, N-acetylneuraminic acid], in data set [3], the pKi was 3.20.
